Assay results published in ChEMBL document CHEMBL4190165 (Medchemcomm, 2016).

Experiments:
[1] = Inhibition of Saccharomyces cerevisiae PP30 HSP82 expressed in Escherichia coli BL21(DE3)pLysS by PK/LDH coupled spectrophotometric assay
[2] = Binding affinity to yeast Hsp90 by isothermal titration calorimetric method; set-up: species or system Saccharomyces cerevisiae

SMILES | IC50 [1] | Kd [2]
COC1=C2C[C@@H](C)C[C@H](OC)[C@H](O)[C@@H](C)/C=C(\C)[C@H](OC(N)=O)[C@@H](OC)/C=C\C=C(/C)C(=O)NC(=CC1=O)C2=O [GELDANAMYCIN] | 1000 to 5000 nM | 1200 nM
C[C@@H]1C[C@H]2O[C@@H]2/C=C\C=C\C(=O)Cc2c(Cl)c(O)cc(O)c2C(=O)O1 [RADICICOL] | 20 to 23 nM | 19 nM
